Measured values reported in US12527886B2, “Radiopharmaceuticals and composition for thrombus imaging” (THE ASAN FOUNDATION, priority 2020, dated 2026).

Assay: Stability of Tc-99m labeled compound, labeling purity by HPLC
Assay type: physicochemical
Method: 2 mL of Tc-99m was added dropwise to a lyophilized vial including 0.1 mg of GP-104, 15 μg of SnCl2, and 10 μg of cysteine, the vial was allowed to stand at room temperature for 10 minutes, and the reaction was terminated by adjusting pH to 7 using a NaOH solution. Labeling purity was confirmed to be 93.21% by HPLC (analysis conditions: Luna C18 250×4.6 mm, phosphate buffer:acetonitrile (100:0, 0 to 5 minutes; 80:20, 5 to 10 minutes; 80:20, 17 minutes; 100:0, 17.1 minutes). 100:0. 20 min), 1.0 mL/min, UV=280 nm).
In order to confirm the effect of cysteine addition after the reaction, the following experiment was performed: 0.1 mg of GP-104 was dissolved in water for injection, the pH was adjusted to about 3.5 when 10 μL of SnCl2 (1.5 mg/mL) and 2 mL of Tc-99m were added thereto, and the resulting mixture was allowed to stand at room temperature for 10 minutes. The reaction was terminated by adjusting the pH to 7 using a NaOH solution and 10 μL of cysteine (1.0 mg/mL). Labeling purity was confirmed to be 91.4% using HPLC in the same manner as in Example 2-7.
After 0.1 mg of GP-104 was dissolved in water for injection, pH was adjusted to about 3.5 and the resulting solution was allowed to stand at room temperature for 10 minutes when 10 μL of SnCl2 (1.5 mg/mL), 10 μL of cysteine (1.0 mg/mL) and 2 mL of Tc-99m were added thereto, and the reaction was terminated by adjusting the pH to 7 using a NaOH solution. Labeling purity was confirmed to be 94.84% using HPLC in the same manner as in Example 2-7.
HCl and NaOH was additionally added dropwise to the solution of Example 2-8 to perform a stability evaluation by adjusting the final pH of the solution to acidic (pH 5.5) and basic (pH 8.5) conditions, and labeling purity was confirmed using HPLC in the same manner as in Example 2-7.
HCl and NaOH was additionally added dropwise to the solution of Example 2-9 to perform a stability evaluation by adjusting the final pH of the solution to acidic (pH 5.5) and basic (pH 8.5) conditions, and labeling purity was confirmed using HPLC in the same manner as in Example 2-7.
HCl and NaOH was additionally added dropwise to the solution of Example 2-10 to perform a stability evaluation by adjusting the final pH of the solution to acidic (pH 5.5) and basic (pH 8.5) conditions, and labeling purity was confirmed using HPLC in the same manner as in Example 2-7.
0.1 mg of GP-105 was dissolved in water for injection, the pH was adjusted to about 3.5 when 10 μL of SnCl2 (1.5 mg/mL) and 2 mL of Tc-99m were added thereto, and the resulting mixture was allowed to stand at room temperature for 10 minutes. The reaction was terminated by adjusting the pH to 7 using a NaOH solution and 10 μL of cysteine (1.0 mg/mL). Labeling purity was confirmed to be 98.1% using HPLC in the same manner as in Example 2-7.
HCl and NaOH was additionally added dropwise to the solution of Example 2-12 to perform a stability evaluation by adjusting the final pH of the solution to acidic (pH 5.5) and basic (pH 8.5) conditions, and labeling purity was confirmed using HPLC in the same manner as in Example 2-7.
HCl and NaOH was additionally added dropwise to the solution of Example 2-13 to perform a stability evaluation by adjusting the final pH of the solution to acidic (pH 5.5) and basic (pH 8.5) conditions, and labeling purity was confirmed using HPLC in the same manner as in Example 2-7.
HCl and NaOH was additionally added dropwise to the solution of Example 2-14 to perform a stability evaluation by adjusting the final pH of the solution to acidic (pH 5.5) and basic (pH 8.5) conditions, and labeling purity was confirmed using HPLC in the same manner as in Example 2-7.

Question: What does the source list for `O=C(O)C[C@H](NC(=O)[C@@H]1CCCN(C(=O)CCC2CCNCC2)C1)c1cncc(OCCNC(=O)CN2CC(=O)[O][99Tc-]3([O]C(=O)C2)[O]C(=O)CN(CC(=O)NCCOc2cncc([C@H](CC(=O)O)NC(=O)[C@@H]4CCCN(C(=O)CCC5CCNCC5)C4)c2)CC(=O)[O]3)c1` [[Tc-99m]GP-105]?
Answer: radiochemical purity (HPLC) (Ex 4-3, addition of cysteine after reaction, NaOH mixed, 0 hour): 98.06%; radiochemical purity (HPLC) (Ex 4-3, addition of cysteine after reaction, NaOH mixed, 1 hour): 95.17%; radiochemical purity (HPLC) (Ex 4-3, addition of cysteine after reaction, NaOH mixed, 2 hours): 94.14%; radiochemical purity (HPLC) (Ex 4-3, addition of cysteine after reaction, NaOH mixed, 3 hours): 91.91%; radiochemical purity (HPLC) (Ex 4-3, addition of cysteine after reaction, NaOH mixed, 4 hours): 89.00%; radiochemical purity (HPLC) (Ex 4-3, addition of cysteine after reaction, NaOH separately, 0 hour): 99.39%; radiochemical purity (HPLC) (Ex 4-3, addition of cysteine after reaction, NaOH separately, 1 hour): 99.04%; radiochemical purity (HPLC) (Ex 4-3, addition of cysteine after reaction, NaOH separately, 2 hours): 97.02%; radiochemical purity (HPLC) (Ex 4-3, addition of cysteine after reaction, NaOH separately, 3 hours): 91.14%; radiochemical purity (HPLC) (Ex 4-3, addition of cysteine after reaction, NaOH separately, 4 hours): 66.87%; radiochemical purity (HPLC) (solution of Example 2-12 (165 nmol cysteine), pH 5.5, 0 hr): 100%; radiochemical purity (HPLC) (solution of Example 2-12 (165 nmol cysteine), pH 5.5, 2 hr): 85.49%; radiochemical purity (HPLC) (solution of Example 2-12 (165 nmol cysteine), pH 5.5, 4 hr): 82.11%; radiochemical purity (HPLC) (solution of Example 2-12 (165 nmol cysteine), pH 7, 0 hr): 100%; radiochemical purity (HPLC) (solution of Example 2-12 (165 nmol cysteine), pH 7, 2 hr): 94.88%; radiochemical purity (HPLC) (solution of Example 2-12 (165 nmol cysteine), pH 7, 4 hr): 85.55%; radiochemical purity (HPLC) (solution of Example 2-12 (165 nmol cysteine), pH 8.5, 0 hr): 100%; radiochemical purity (HPLC) (solution of Example 2-12 (165 nmol cysteine), pH 8.5, 2 hr): 50.64%; radiochemical purity (HPLC) (solution of Example 2-12 (165 nmol cysteine), pH 8.5, 4 hr): 23.98%; radiochemical purity (HPLC) (solution of Example 2-13 (82.5 nmol cysteine + 82.5 nmol VB1), pH 5.5, 0 hr): 100%; radiochemical purity (HPLC) (solution of Example 2-13 (82.5 nmol cysteine + 82.5 nmol VB1), pH 5.5, 2 hr): 100%; radiochemical purity (HPLC) (solution of Example 2-13 (82.5 nmol cysteine + 82.5 nmol VB1), pH 5.5, 4 hr): 98.63%; radiochemical purity (HPLC) (solution of Example 2-13 (82.5 nmol cysteine + 82.5 nmol VB1), pH 7, 0 hr): 100%; radiochemical purity (HPLC) (solution of Example 2-13 (82.5 nmol cysteine + 82.5 nmol VB1), pH 7, 2 hr): 100%; radiochemical purity (HPLC) (solution of Example 2-13 (82.5 nmol cysteine + 82.5 nmol VB1), pH 7, 4 hr): 94.88%; radiochemical purity (HPLC) (solution of Example 2-13 (82.5 nmol cysteine + 82.5 nmol VB1), pH 8.5, 0 hr): 100%; radiochemical purity (HPLC) (solution of Example 2-13 (82.5 nmol cysteine + 82.5 nmol VB1), pH 8.5, 2 hr): 94.13%; radiochemical purity (HPLC) (solution of Example 2-13 (82.5 nmol cysteine + 82.5 nmol VB1), pH 8.5, 4 hr): 90.17%
